tested on: Recombinant human CDC25B; assay: CDC25B phosphatase assay, GST fusion protein, fluorescein diphosphate; assay type: biochemical; details: none = 100; 1 hour preincubation; concentration not given (0.3-100 μM tested)
Method: The compounds of the present invention are also capable of inhibiting dual specificity phosphatases, for example CDC25A and CDC25B. Phosphatases CDC25A and CDC25B are disclosed in U.S. Pat. No. 5,441,880. Inhibition of dual specificity phosphatases is defined herein as inhibition of the activity of CDC25A and/or CDC25B at a concentration of 100 μM of the inhibitor compound. In a preferred embodiment, the activity of the phosphatase is inhibited by at least 10%. In more preferred embodiments, the activity of the phophatase is inhibited by at least 25%, or even more preferably, by at least 50%. The ability of the compounds of the present invention to inhibit the phosphatases can be determined by measuring the effect of the compounds on the ability of CDC25 or CDC25B to dephosphorylate a substrate. Appropriate methods are known to those of ordinary skill in the art, and include, for example, calorimetric assays. A suitable assay is described in U.S. Pat. No. 5,441,880, the disclosure of which is incorporated herein by reference. […] The assay may be performed as a rapid calorimetric microtitration plate assay.
Compounds 1a-1r were assessed for ability to inhibit CDC25A and CDC25B activity. Recombinant human CDC25A and CDC25B were obtained as a glutahione-S-transferase (GST) fusion protein using human cDNA and standard molecular biological methods. The cDNA constructs are in a plasmid that is expressed in E. coli under the control of isopropyl-beta-D-[…] (IPTG). The bacterial pellet was disrupted by sonication, and centrifuged at 10,000×g. Using glutathione-agarose beads, the fusion protein was purified from postmicrosomal supernant fraction as described by Baratte et al. (1992) Anticancer Res. 12: 873-880. Phosphatase activity was assayed with a spectrofluorimeter under the following conditions: 1 unit (1 U=amount of protein that induces 33 fluoresence units/minute of product) of fusion protein in a final incubation mixture (150 μL) comprised of 25 mM Tris (pH=8.0), 5 mM EDTA, 33 μg/ml BSA, and 20 μM fluorescein diphosphate in 96-well microtiter plates. Plates were preincubated for 1 hour with 0 (control), 0.3, 1, 3, 10, 30, 100 μM compounds at room temperature. After the 1 hour incubation at room temperature, fluorescence of the fluorescein product (Ex. 485 nm; Em. 530 nm) were measured with a Biosystems Cytofluor II (Framingham, Mass.).

Q: For `CCCCCCCCCC(=O)NC(CCC(=O)N(CCCCCC)CCNC(=O)c1nc(-c2ccccc2)oc1-c1ccccc1)C(=O)O` (stereo not shown) [Compound 1e], which “CDC25B activity remaining, percent of control” value is on record?
A: 17%

Q: How did the “CDC25B activity remaining, percent of control” value turn out when `CCCCCCCCCC(=O)NC(CCC(=O)N(C)CCNC(=O)c1nc(-c2ccccc2)oc1C)C(=O)O` (stereo not shown) [Compound 1a] was run?
A: 106%

Q: Which “CDC25B activity remaining, percent of control” value does the source give for `O=C(C=Cc1ccccc1)NC(CCC(=O)N(CCNC(=O)c1nc(-c2ccccc2)oc1-c1ccccc1)Cc1ccccc1)C(=O)O` (stereo not shown) [Compound 1r] here?
A: 56%

Q: With `CCCCCCCCCC(=O)NC(CCC(=O)N(CCCCCC)CCNC(=O)c1nc(-c2ccccc2)oc1C)C(=O)O` (stereo not shown) [Compound 1b] as the compound, how does the “CDC25B activity remaining, percent of control” value read?
A: 44%

Q: `Cc1oc(-c2ccccc2)nc1C(=O)NCCN(Cc1ccccc1)C(=O)CCC(NC(=O)CCc1ccccc1)C(=O)O` (stereo not shown) [Compound 1i] was tested. Which “CDC25B activity remaining, percent of control” value did it give?
A: 63%

Q: `Cc1oc(-c2ccccc2)nc1C(=O)NCCN(Cc1ccccc1)C(=O)CCC(NC(=O)C=Cc1ccccc1)C(=O)O` (stereo not shown) [Compound 1o] was tested. Which “CDC25B activity remaining, percent of control” value did it give?
A: 66%

Q: How did the “CDC25B activity remaining, percent of control” value turn out when `O=C(CCc1ccccc1)NC(CCC(=O)N(CCNC(=O)c1nc(-c2ccccc2)oc1-c1ccccc1)Cc1ccccc1)C(=O)O` (stereo not shown) [Compound 1l] was run?
A: 69%

Q: `CN(CCNC(=O)c1nc(-c2ccccc2)oc1-c1ccccc1)C(=O)CCC(NC(=O)CCc1ccccc1)C(=O)O` (stereo not shown) [Compound 1j] was tested. Which “CDC25B activity remaining, percent of control” value did it give?
A: 90%

tested on: PP1; assay: Phosphatase activity by [32P] release from phosphorylase-a or phosphohistone (Honkanen method); assay type: biochemical; details: 100 μM inhibitor; none = 100
Method: (§1) It has been found in accordance with the present invention that compounds of formula I are capable of inhibiting serine/threonine protein phosphatases. Inhibition of serine/threonine protein phosphatases is defined herein as inhibition of the activity of one or more of PP1, PP2A or PP3 at a concentration of 100 μM or less of the inhibitor compound. In a preferred embodiment, the activity of the phosphatase is inhibited by at least 10%. In more preferred embodiments, the activity of the phophatase is inhibited by at least 25%, or even more preferably, by at least 50%. Inhibition of PP1, PP2A or PP3 can be assessed by methods known to one of ordinary skill in the art. Suitable assays are described, for example by Honkanen et al. (1994) Toxicon 32:339 and Honkanen et al. (1990) J. Biol. Chem. 265: 19401, the disclosures of which are incorporated herein by reference. Briefly, phosphatase activity is determined by quantifying the [^32 p] released from a ^32 p-labeled substrate such as phosphohistone or phosphorylase-a. Decreased [^32 p] release in the presence of the compounds of the present invention relative to control samples provides a measure of the ability of the compounds of the invention to inhibit PP1, PP2A or PP3.
(§2) Phosphatase activity and the inhibitory activity of the compounds of Table 1 were determined by the method of Honkanen et al. (1994) Toxicon 32:339. Briefly, phosphatase activity against phosphorylase-a or phosphohistone was 25 determined by the quantification of liberated [^32 p]. Assays, 80 μl total volume, containing 50 mM Tris-HCl, pH 7.4, 0.5 mM DTT, 1 mM EDTA (assay buffer) and [^32 p]phosphoprotein (1-2 μM PO4), were conducted as described previously (Honkanen et al., 1991 Mol. Pharmac. 40:577). Dephosphorylation reactions were routinely conducted for 5-10 min. using phosphorylase-a as a substrate and for 10-20 min. using phosphohistone. In all assays the dephosphorylation of substrate was kept to less than 10% of the total phosphorylated substrate available, and the reactions were adjusted to ensure that enzyme activity was linear with respect to enzyme concentration and time. [^32 p]Phosphate liberated by the enzymes was extracted as a phosphomolybdate complex and measured according to the methods of Killilea et al. (1978) Arch. Biochem. Biophys. 191:638. Inhibition of protein phosphatase activity by inhibitors was determined by adding the 100 μM of inhibitors to the enzyme mixture 5-10 min. prior to initiating the reaction with the addition of substrate.

Q: How did the “PP1 remaining activity, percent of control” value turn out when `CCCCCCCCCC(=O)NC(CCC(=O)N(CCCCCC)CCNC(=O)c1nc(-c2ccccc2)oc1-c1ccccc1)C(=O)O` (stereo not shown) [Compound 1e] was run?
A: 153%

Q: For `CCCCCCCCCC(=O)NC(CCC(=O)N(C)CCNC(=O)c1nc(-c2ccccc2)oc1C)C(=O)O` (stereo not shown) [Compound 1a], which “PP1 remaining activity, percent of control” value is on record?
A: 121%

Q: Which “PP1 remaining activity, percent of control” value does the source give for `O=C(C=Cc1ccccc1)NC(CCC(=O)N(CCNC(=O)c1nc(-c2ccccc2)oc1-c1ccccc1)Cc1ccccc1)C(=O)O` (stereo not shown) [Compound 1r] here?
A: 53%

Q: How did the “PP1 remaining activity, percent of control” value turn out when `CCCCCCCCCC(=O)NC(CCC(=O)N(CCCCCC)CCNC(=O)c1nc(-c2ccccc2)oc1C)C(=O)O` (stereo not shown) [Compound 1b] was run?
A: 59%

Q: For `Cc1oc(-c2ccccc2)nc1C(=O)NCCN(Cc1ccccc1)C(=O)CCC(NC(=O)C=Cc1ccccc1)C(=O)O` (stereo not shown) [Compound 1o], which “PP1 remaining activity, percent of control” value is on record?
A: 64%

Q: With `O=C(CCc1ccccc1)NC(CCC(=O)N(CCNC(=O)c1nc(-c2ccccc2)oc1-c1ccccc1)Cc1ccccc1)C(=O)O` (stereo not shown) [Compound 1l] as the compound, how does the “PP1 remaining activity, percent of control” value read?
A: 59%

Q: For `CN(CCNC(=O)c1nc(-c2ccccc2)oc1-c1ccccc1)C(=O)CCC(NC(=O)CCc1ccccc1)C(=O)O` (stereo not shown) [Compound 1j], which “PP1 remaining activity, percent of control” value is on record?
A: 80%

target: PP2A (Bos taurus, UniProt P67774); assay: as above; assay type: biochemical; details: 100 μM inhibitor; none = 100; read-out: PP2A, percent inhibition relative to control (100%)
Method: as §1, §2

PP2A, sequence (P67774 whole entry): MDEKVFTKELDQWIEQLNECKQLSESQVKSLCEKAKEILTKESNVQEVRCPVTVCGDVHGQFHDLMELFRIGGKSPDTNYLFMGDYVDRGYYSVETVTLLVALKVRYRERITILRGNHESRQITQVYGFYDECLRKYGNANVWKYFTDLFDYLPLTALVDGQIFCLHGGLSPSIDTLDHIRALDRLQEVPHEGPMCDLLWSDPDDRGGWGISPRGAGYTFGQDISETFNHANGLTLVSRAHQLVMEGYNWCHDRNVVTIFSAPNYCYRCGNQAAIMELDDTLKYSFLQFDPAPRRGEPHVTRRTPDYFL

Q: `CCCCCCCCCC(=O)NC(CCC(=O)N(CCCCCC)CCNC(=O)c1nc(-c2ccccc2)oc1-c1ccccc1)C(=O)O` (stereo not shown) [Compound 1e] was tested. Which PP2A remaining activity, % of control at 100 µM did it give?
A: 152%

Q: For `CCCCCCCCCC(=O)NC(CCC(=O)N(C)CCNC(=O)c1nc(-c2ccccc2)oc1C)C(=O)O` (stereo not shown) [Compound 1a], which PP2A remaining activity, % of control at 100 µM is on record?
A: 100%

Q: With `O=C(C=Cc1ccccc1)NC(CCC(=O)N(CCNC(=O)c1nc(-c2ccccc2)oc1-c1ccccc1)Cc1ccccc1)C(=O)O` (stereo not shown) [Compound 1r] as the compound, how does the PP2A remaining activity, % of control at 100 µM read?
A: 68%

Q: With `CCCCCCCCCC(=O)NC(CCC(=O)N(CCCCCC)CCNC(=O)c1nc(-c2ccccc2)oc1C)C(=O)O` (stereo not shown) [Compound 1b] as the compound, how does the PP2A remaining activity, % of control at 100 µM read?
A: 135%

Q: Which PP2A remaining activity, % of control at 100 µM does the source give for `Cc1oc(-c2ccccc2)nc1C(=O)NCCN(Cc1ccccc1)C(=O)CCC(NC(=O)CCc1ccccc1)C(=O)O` (stereo not shown) [Compound 1i] here?
A: 80%

Q: With `Cc1oc(-c2ccccc2)nc1C(=O)NCCN(Cc1ccccc1)C(=O)CCC(NC(=O)C=Cc1ccccc1)C(=O)O` (stereo not shown) [Compound 1o] as the compound, how does the PP2A remaining activity, % of control at 100 µM read?
A: 88%

Q: `O=C(CCc1ccccc1)NC(CCC(=O)N(CCNC(=O)c1nc(-c2ccccc2)oc1-c1ccccc1)Cc1ccccc1)C(=O)O` (stereo not shown) [Compound 1l] was tested. Which PP2A remaining activity, % of control at 100 µM did it give?
A: 69%

Q: With `CN(CCNC(=O)c1nc(-c2ccccc2)oc1-c1ccccc1)C(=O)CCC(NC(=O)CCc1ccccc1)C(=O)O` (stereo not shown) [Compound 1j] as the compound, how does the PP2A remaining activity, % of control at 100 µM read?
A: 72%

tested on: PP3; assay: as above; assay type: biochemical; details: 100 μM inhibitor; none = 100
Method: as §1, §2

Q: For `CCCCCCCCCC(=O)NC(CCC(=O)N(CCCCCC)CCNC(=O)c1nc(-c2ccccc2)oc1-c1ccccc1)C(=O)O` (stereo not shown) [Compound 1e], which “PP3 remaining activity, percent of control” value is on record?
A: 71%

Q: For `CCCCCCCCCC(=O)NC(CCC(=O)N(C)CCNC(=O)c1nc(-c2ccccc2)oc1C)C(=O)O` (stereo not shown) [Compound 1a], which “PP3 remaining activity, percent of control” value is on record?
A: 76%

Q: How did the “PP3 remaining activity, percent of control” value turn out when `O=C(C=Cc1ccccc1)NC(CCC(=O)N(CCNC(=O)c1nc(-c2ccccc2)oc1-c1ccccc1)Cc1ccccc1)C(=O)O` (stereo not shown) [Compound 1r] was run?
A: 15%

Q: With `CCCCCCCCCC(=O)NC(CCC(=O)N(CCCCCC)CCNC(=O)c1nc(-c2ccccc2)oc1C)C(=O)O` (stereo not shown) [Compound 1b] as the compound, how does the “PP3 remaining activity, percent of control” value read?
A: 32%

Q: How did the “PP3 remaining activity, percent of control” value turn out when `Cc1oc(-c2ccccc2)nc1C(=O)NCCN(Cc1ccccc1)C(=O)CCC(NC(=O)CCc1ccccc1)C(=O)O` (stereo not shown) [Compound 1i] was run?
A: 14%

Q: How did the “PP3 remaining activity, percent of control” value turn out when `Cc1oc(-c2ccccc2)nc1C(=O)NCCN(Cc1ccccc1)C(=O)CCC(NC(=O)C=Cc1ccccc1)C(=O)O` (stereo not shown) [Compound 1o] was run?
A: 13%

Q: With `O=C(CCc1ccccc1)NC(CCC(=O)N(CCNC(=O)c1nc(-c2ccccc2)oc1-c1ccccc1)Cc1ccccc1)C(=O)O` (stereo not shown) [Compound 1l] as the compound, how does the “PP3 remaining activity, percent of control” value read?
A: 22%

Q: How did the “PP3 remaining activity, percent of control” value turn out when `CN(CCNC(=O)c1nc(-c2ccccc2)oc1-c1ccccc1)C(=O)CCC(NC(=O)CCc1ccccc1)C(=O)O` (stereo not shown) [Compound 1j] was run?
A: 38%

— patent publication US5856506A, “Phosphatase inhibitors and methods of use thereof” (University of Pittsburgh, priority 1997, dated 1999)
